Measured values from US5621102A, “Process for preparing enantiomerically pure xanthine derivatives” (Cell Therapeutics, Inc., priority 1995, dated 1997).
“And” between values parts separate entries of the source, which are not always exact repeats. Equal entries are not always repeated.

Tests used:
[1] = tested on: lysophosphatidic acid acyl transferase (LPAAT); assay: in vitro inhibition of LPAAT in 3T3 Ras-transformed fibroblasts stimulated with IL-1β; type: cell-based
Experimental: FIG. 17 illustrates a comparison of CT1501R, its S isomer CT1501S, and PTX on in vitro inhibition of lysophosphatidic acid acyl transferase (LPAAT), an enzyme involved in second messenger signaling. […] LPAAT activity was determined in 3T3 Ras-transformed fibroblasts stimulated with IL-1β.
A method described here permits differentiation of the various subspecies of PA and DAG based upon acyl chain composition. This can differentiate those compounds that activate (and inhibit activation of) the present second messenger pathway from other pathways, such as the classical PI pathway. The present second messenger pathway involves substrates with unsaturated fatty acids in the sn-2 position other than arachidonate and those sub species of PAPH and LPAAT that are not involved in normal cellular housekeeping functions that are part of the classical PI pathway. […]
One in vitro assay measures inhibition of the relevant enzymes lysophosphatidic acid acyltransferase (LPAAT) and phosphatidic acid phosphoryl hydrolase (PAPH). […] It is important to note that the assay method permits discrimination between various forms of PA and DAG so that those relevant to the pathway affected by the (R) or (S) compounds of the invention can be measured directly. […] Thus, the relevant unsaturated (non-arachidonic) PA and DAG subspecies may be detected. […]

[2] = tested on: endotoxin induced lethality; assay: endotoxin induced lethality in mice (septic shock model); type: in vivo, Balb/c mice; settings: for cumulative percent survival: 72 hours post LPS (LPS-only 7%); for survival (Number Surviving/Total): single experiments
Experimental: Animals were treated with 10 μg/gm of LPS (i.v.) Immediately following the LPS (t=0), 2 hrs after the LPS (t=2) or 4 hrs following LPS (t-4) the mice were treated with their first treatment of CT1501R (100 mg/kg, i.p.). The mice were treated with CT1501R three times per day thereafter, and animal survival was monitored.
This example illustrates the effect of CT1501R on survival in mice given a lethal dose of endotoxin. We determined if CT1501R protects against endotoxin induced lethality in a murine model. Septic shock was modeled by endotoxin injection of 6-8 week old female Balb/c mice similar to previously published reports (Ashkenazi et al. Proc. Natl. Acad. Sci. U.S.A. 88: 10535-10539, 1991) under protocols approved by the Animal Use Committee of the Biomembrane Institute, Seattle, Wash. Animals were injected intravaneously (i.v.) with an approximate LD100 dose (10 μg/g) of Salmonella abortus equi-derived endotoxin (Sigma Chemical Co., L-1887) in phosphate buffered saline (PBS). CT1501R at a dose of 100 μg/kg was injected intraperitoneally (IP) 3 times per day ([…]). Control mice were injected at the same times with a similar volume of vehicle control (PBS). Survival was followed for at least 72 hours.
Ten mice were treated each with PB S alone or CT 1501R alone on the same schedule as the experimental mice. […] Endotoxin survival data were summarized from a total of six (6) independent experiments. Summary Table 1 details the results of each of the six experiments. In FIG. 5, each time point represents a minimum of three (3) experiments comprising at least twenty (20) mice per group. A probability analysis of the survival data using a Fisher's Exact One Tailed Test is given as Table 3. Significant protection was conferred if CT1501R was administered immediately after the LPS treatment. The cumulative percent survival at 72 hours post LPS treatment was 60% compared to 7% for the LPS-only treated animals (p=<0.0005; Table 3).

With `C[C@@H](O)CCCCn1c(=O)c2c(ncn2C)n(C)c1=O` [CT1501R, (R)-1-(5-hydroxyhexyl)-3,7-dimethylxanthine] the “potency relative to racemic mixture (M1)” value [1] was “two to three time more potent than the racemic mixture”, the “inhibition of LPAAT enzyme activity” value ([1]; 3T3 Ras-transformed fibroblasts stimulated with IL-1β, at IC50 concentrations achievable in a clinical setting) was “significantly inhibited enzyme activity” and the cumulative percent survival ([2]; CT1501R four hours after LPS) was 37%. For the same compound, the cumulative percent survival ([2]; CT1501R immediately after LPS) was 60%, the cumulative percent survival ([2]; CT1501R two hours after LPS) was 55% and the “survival compared with published results for Genentech's bifunctional TNF receptor” value ([2]; drug given approximately simultaneously with or two hours following lethal LPS) was “consistently was better at improving survival than Genentech's TNF receptor”. The “survival (Number Surviving/Total)” value ([2]; first CT-1501R dose t = 0 Hr post LPS, 24 Hr post LPS) was 4/5 and 5/5 and 9/10, the “survival (Number Surviving/Total)” value ([2]; first CT-1501R dose t = 0 Hr post LPS, 48 Hr post LPS) was 4/5 and 5/5 and 7/10 and the “survival (Number Surviving/Total)” value ([2]; first CT-1501R dose t = 0 Hr post LPS, 72 Hr post LPS) was 4/5 and 5/5 and 3/10. For the same compound, the “survival (Number Surviving/Total)” value ([2]; first CT-1501R dose t = 2 Hr post LPS, 24 Hr post LPS) was 4/5 and 5/5 and 5/10, the “survival (Number Surviving/Total)” value ([2]; first CT-1501R dose t = 2 Hr post LPS, 48 Hr post LPS) was 3/5 and 5/5 and 3/10 and the “survival (Number Surviving/Total)” value ([2]; first CT-1501R dose t = 2 Hr post LPS, 72 Hr post LPS) was 3/5 and 5/5 and 3/10. The “survival (Number Surviving/Total)” value ([2]; first CT-1501R dose t = 4 Hr post LPS, 24 Hr post LPS) was 5/5 and 7/10 and 3/10, the “survival (Number Surviving/Total)” value ([2]; first CT-1501R dose t = 4 Hr post LPS, 48 Hr post LPS) was 3/5 and 5/10 and 4/10 and 3/10 and the “survival (Number Surviving/Total)” value ([2]; first CT-1501R dose t = 4 Hr post LPS, 72 Hr post LPS) was 3/5 and 5/10 and 2/10 and 3/10. For the same compound, the “adverse effects, drug alone without endotoxin” value ([2]; ten mice, same schedule as the experimental mice) was “no adverse effects noted”.
